Assay results published in patent publication US20160158317A1, “Antimicrobial Peptide Variants and Polynucleotides Encoding Same” (Adenium Biotech A/S, priority 2010, published 2016).
Where a SMILES comes first, the peptide text is derived from it. Bridges are numbered along the chain shown (N, C = ends).

Test: Determination of the protein binding (90% serum, 30 kDa filter, HPLC)
Assay type: in vitro ADME
Settings: serum
Method: Protein binding assays were performed as follows. The purified peptides were mixed with 90% serum and centrifuged through a 30 kDa filter. The ultra-filtrate and the non filtrated serum samples were quantified by HPLC measurements and the protein binding was subsequently calculated.

Structure (SMILES): CC(C)[C@@H]1NC(=O)CNC(=O)[C@H](CC(N)=O)NC(=O)[C@H](CCCNC(=N)N)NC(=O)[C@H](Cc2ccc(O)cc2)NC(=O)[C@H](C)NC(=O)[C@@H]2CSSC[C@H](NC(=O)[C@H](C)NC(=O)[C@H](CCCNC(=N)N)NC1=O)C(=O)N[C@@H](Cc1ccc(O)cc1)C(=O)N[C@@H](CCCNC(=N)N)C(=O)N[C@@H](CCCNC(=N)N)C(=O)N[C@H](C(=O)N[C@@H](CC(N)=O)C(=O)O)CSSC[C@H](NC(=O)[C@H](Cc1ccccc1)NC(=O)CN)C(=O)N[C@@H](Cc1c[nH]c3ccccc13)C(=O)N[C@@H](CCCNC(=N)N)C(=O)N[C@@H](C)C(=O)N2 [compound 418] (H-GFCWRACAYRNGVRACYRRCN-OH; disulfide 3-20, 7-16 (inferred); N-terminus and C-terminus assumed)
- fraction unbound: 0.08

Structure (SMILES): CC(C)[C@@H]1NC(=O)[C@H](CCCNC(=N)N)NC(=O)[C@H](Cc2c[nH]c3ccccc23)NC(=O)[C@@H](NC(=O)[C@H](Cc2ccccc2)NC(=O)CN)CSSC[C@@H](C(=O)N[C@@H](CC(N)=O)C(=O)O)NC(=O)[C@H](CCCNC(=N)N)NC(=O)[C@H](CCCNC(=N)N)NC(=O)[C@H](Cc2ccc(O)cc2)NC(=O)[C@@H]2CSSC[C@H](NC1=O)C(=O)N[C@@H](C)C(=O)N[C@@H](Cc1ccc(O)cc1)C(=O)N[C@@H](CO)C(=O)N[C@@H](CC(N)=O)C(=O)NCC(=O)N[C@@H](CCCCN)C(=O)N[C@@H](CCCNC(=N)N)C(=O)N[C@@H](C(C)C)C(=O)N2 [compound 425] (H-GFCWRVCAYSNGKRVCYRRCN-OH; disulfide 3-20, 7-16 (inferred); N-terminus and C-terminus assumed)
- fraction unbound: 0.31

Structure (SMILES): CC(C)C[C@@H]1NC(=O)CNC(=O)[C@H](CC(N)=O)NC(=O)[C@H](CCCNC(=N)N)NC(=O)[C@H](CO)NC(=O)[C@H](C)NC(=O)[C@@H]2CSSC[C@H](NC(=O)[C@H](C(C)C)NC(=O)[C@H](CCCNC(=N)N)NC1=O)C(=O)N[C@@H](Cc1ccc(O)cc1)C(=O)N[C@@H](CCCNC(=N)N)C(=O)N[C@@H](CCCNC(=N)N)C(=O)N[C@H](C(=O)N[C@@H](CC(N)=O)C(=O)O)CSSC[C@H](NC(=O)[C@H](Cc1ccccc1)NC(=O)CN)C(=O)N[C@@H](Cc1c[nH]c3ccccc13)C(=O)N[C@@H](CCCNC(=N)N)C(=O)N[C@@H](C(C)C)C(=O)N2 [compound 435] (H-GFCWRVCASRNGLRVCYRRCN-OH; disulfide 3-20, 7-16 (inferred); N-terminus and C-terminus assumed)
- fraction unbound: 0.15

Structure (SMILES): CC(C)[C@@H]1NC(=O)[C@H](CCCNC(=N)N)NC(=O)[C@H](CCCCN)NC(=O)CNC(=O)[C@H](CC(N)=O)NC(=O)[C@H](CO)NC(=O)[C@H](Cc2ccc(O)cc2)NC(=O)[C@H](Cc2c[nH]cn2)NC(=O)[C@@H]2CSSC[C@H](NC1=O)C(=O)N[C@@H](Cc1ccc(O)cc1)C(=O)N[C@@H](CCCNC(=N)N)C(=O)N[C@@H](CCCNC(=N)N)C(=O)N[C@H](C(=O)N[C@@H](CC(N)=O)C(=O)O)CSSC[C@H](NC(=O)[C@H](Cc1ccccc1)NC(=O)CN)C(=O)N[C@@H](Cc1c[nH]c3ccccc13)C(=O)N[C@@H](CCCNC(=N)N)C(=O)N[C@@H](C(C)C)C(=O)N2 [compound 439] (H-GFCWRVCHYSNGKRVCYRRCN-OH; disulfide 3-20, 7-16 (inferred); N-terminus and C-terminus assumed)
- fraction unbound: 0.08

Structure (SMILES): CC(C)C[C@@H]1NC(=O)CNC(=O)[C@H](CC(N)=O)NC(=O)[C@H](CCCNC(=N)N)NC(=O)[C@H](CCCCN)NC(=O)[C@H](C)NC(=O)[C@@H]2CSSC[C@H](NC(=O)[C@H](C(C)C)NC(=O)[C@H](CCCNC(=N)N)NC1=O)C(=O)N[C@@H](Cc1ccc(O)cc1)C(=O)N[C@@H](CCCNC(=N)N)C(=O)N[C@@H](CCCNC(=N)N)C(=O)N[C@H](C(=O)N[C@@H](CC(N)=O)C(=O)O)CSSC[C@H](NC(=O)[C@H](Cc1ccccc1)NC(=O)CN)C(=O)N[C@@H](Cc1c[nH]c3ccccc13)C(=O)N[C@@H](Cc1ccc(O)cc1)C(=O)N[C@@H](C)C(=O)N2 [compound 450] (H-GFCWYACAKRNGLRVCYRRCN-OH; disulfide 3-20, 7-16 (inferred); N-terminus and C-terminus assumed)
- fraction unbound: 0.02

Structure (SMILES): CC(C)C[C@@H]1NC(=O)CNC(=O)[C@H](CC(N)=O)NC(=O)[C@H](CCCNC(=N)N)NC(=O)[C@H](CCCNC(=N)N)NC(=O)[C@H](C)NC(=O)[C@@H]2CSSC[C@H](NC(=O)[C@H](CO)NC(=O)[C@H](CCCNC(=N)N)NC1=O)C(=O)N[C@@H](Cc1ccc(O)cc1)C(=O)N[C@@H](CCCNC(=N)N)C(=O)N[C@@H](CCCNC(=N)N)C(=O)N[C@H](C(=O)N[C@@H](CC(N)=O)C(=O)O)CSSC[C@H](NC(=O)[C@H](Cc1ccccc1)NC(=O)CN)C(=O)N[C@@H](Cc1c[nH]c3ccccc13)C(=O)N[C@@H](Cc1ccc(O)cc1)C(=O)N[C@@H](C(C)C)C(=O)N2 [compound 453] (H-GFCWYVCARRNGLRSCYRRCN-OH; disulfide 3-20, 7-16 (inferred); N-terminus and C-terminus assumed)
- fraction unbound: 0.08

Structure (SMILES): CC(C)[C@@H]1NC(=O)[C@@H]2CSSC[C@H](NC(=O)[C@H](CCCCN)NC(=O)[C@H](CCCNC(=N)N)NC(=O)[C@H](C)NC(=O)CNC(=O)[C@H](CC(N)=O)NC(=O)[C@H](CCCNC(=N)N)NC(=O)[C@H](CCCCN)NC1=O)C(=O)N[C@@H](Cc1c[nH]cn1)C(=O)N[C@@H](CCCNC(=N)N)C(=O)N[C@@H](CCCNC(=N)N)C(=O)N[C@H](C(=O)N[C@@H](CC(N)=O)C(=O)O)CSSC[C@H](NC(=O)[C@H](Cc1ccccc1)NC(=O)CN)C(=O)N[C@@H](Cc1c[nH]c3ccccc13)C(=O)N[C@@H](Cc1ccc(O)cc1)C(=O)N[C@@H](C(C)C)C(=O)N2 [compound 454] (H-GFCWYVCVKRNGARKCHRRCN-OH; disulfide 3-20, 7-16 (inferred); N-terminus and C-terminus assumed)
- fraction unbound: 0.1

Structure (SMILES): CC(C)[C@@H]1NC(=O)[C@@H]2CSSC[C@H](NC(=O)[C@H](C)NC(=O)[C@H](CCCNC(=N)N)NC(=O)[C@H](CCCCN)NC(=O)CNC(=O)[C@H](CC(N)=O)NC(=O)[C@H](CCCCN)NC(=O)[C@H](Cc3ccc(O)cc3)NC1=O)C(=O)N[C@@H](Cc1ccc(O)cc1)C(=O)N[C@@H](CCCNC(=N)N)C(=O)N[C@@H](CCCNC(=N)N)C(=O)N[C@H](C(=O)N[C@@H](CC(N)=O)C(=O)O)CSSC[C@H](NC(=O)[C@H](Cc1ccccc1)NC(=O)CN)C(=O)NCC(=O)N[C@@H](CCCNC(=N)N)C(=O)N[C@@H](C(C)C)C(=O)N2 [compound 493] (H-GFCGRVCVYKNGKRACYRRCN-OH; disulfide 3-20, 7-16 (inferred); N-terminus and C-terminus assumed)
- fraction unbound: 0.23

Structure (SMILES): CC(C)[C@@H]1NC(=O)[C@H](CCCCN)NC(=O)[C@H](Cc2c[nH]c3ccccc23)NC(=O)[C@@H](NC(=O)[C@H](Cc2ccccc2)NC(=O)CN)CSSC[C@@H](C(=O)N[C@@H](CC(N)=O)C(=O)O)NC(=O)[C@H](CCCNC(=N)N)NC(=O)[C@H](CCCNC(=N)N)NC(=O)[C@H](Cc2ccc(O)cc2)NC(=O)[C@@H]2CSSC[C@H](NC1=O)C(=O)N[C@@H](C)C(=O)N[C@@H](CCCNC(=N)N)C(=O)N[C@@H](CCCNC(=N)N)C(=O)N[C@@H](CC(N)=O)C(=O)NCC(=O)N[C@@H](C)C(=O)N[C@@H](CCCNC(=N)N)C(=O)N[C@@H](CO)C(=O)N2 [compound 504] (H-GFCWKVCARRNGARSCYRRCN-OH; disulfide 3-20, 7-16 (inferred); N-terminus and C-terminus assumed)
- fraction unbound: 0.05

Structure (SMILES): CC(C)[C@@H]1NC(=O)[C@@H]2CSSC[C@H](NC(=O)[C@H](CO)NC(=O)[C@H](CCCNC(=N)N)NC(=O)[C@H](CCCCN)NC(=O)CNC(=O)[C@H](CC(N)=O)NC(=O)[C@H](CO)NC(=O)[C@H](Cc3ccc(O)cc3)NC1=O)C(=O)N[C@@H](Cc1c[nH]cn1)C(=O)N[C@@H](CCCNC(=N)N)C(=O)N[C@@H](CCCNC(=N)N)C(=O)N[C@H](C(=O)N[C@@H](CC(N)=O)C(=O)O)CSSC[C@H](NC(=O)[C@H](Cc1ccccc1)NC(=O)CN)C(=O)N[C@@H](Cc1c[nH]c3ccccc13)C(=O)N[C@@H](CCCNC(=N)N)C(=O)N[C@@H](C(C)C)C(=O)N2 [compound 509] (H-GFCWRVCVYSNGKRSCHRRCN-OH; disulfide 3-20, 7-16 (inferred); N-terminus and C-terminus assumed)
- fraction unbound: 0.13

Structure (SMILES): CC(C)[C@@H]1NC(=O)[C@H](CCCNC(=N)N)NC(=O)[C@H](Cc2c[nH]c3ccccc23)NC(=O)[C@@H](NC(=O)[C@H](Cc2ccccc2)NC(=O)CN)CSSC[C@@H](C(=O)N[C@@H](CC(N)=O)C(=O)O)NC(=O)[C@H](CCCNC(=N)N)NC(=O)[C@H](CCCNC(=N)N)NC(=O)[C@H](Cc2ccc(O)cc2)NC(=O)[C@@H]2CSSC[C@H](NC1=O)C(=O)N[C@@H](C)C(=O)N[C@@H](Cc1ccc(O)cc1)C(=O)N[C@@H](CCCCN)C(=O)N[C@@H](CC(N)=O)C(=O)NCC(=O)N[C@@H](CCCCN)C(=O)N[C@@H](CCCNC(=N)N)C(=O)N[C@@H](CO)C(=O)N2 [compound 523] (H-GFCWRVCAYKNGKRSCYRRCN-OH; disulfide 3-20, 7-16 (inferred); N-terminus and C-terminus assumed)
- fraction unbound: 0.1
